Reference: ChEMBL document CHEMBL1142200, “Efficacy of delayed treatment with ST-246 given orally against systemic orthopoxvirus infections in mice” (Antimicrob Agents Chemother, 2007)
Activity calls are given as the source filed them. The calls are words filed in the database; no cut-off is given here.

Assays:
Mus musculus [1] = assay: Effect on mortality of BALB/c mouse inoculated with Vaccinia virus WR at 50 mg/kg after 24 hrs of viral infection, po for 9 days; assay type: functional, organism-based; parameters: dose 50 mg/kg
Ectromelia virus [2] = assay: Reduction of Ectromelia virus replication in BALB/c mouse nasal wash at 100 mg/kg, po once daily after 14 days; assay type: functional, organism-based; parameters: dose 100 mg/kg
Mus musculus [3] = assay: Effect on mortality of BALB/c mouse inoculated with Cowpox virus BR at 100 mg/kg after 4 hrs of viral infection, po once daily for 10 days relative to control; assay type: functional
Mus musculus [4] = assay: Effect on mortality of BALB/c mouse inoculated with Cowpox virus at 100 mg/kg after 4 hrs of viral infection, po once daily for 14 days relative to control; assay type: functional
Ectromelia virus [5] = assay: Reduction of Ectromelia virus replication in BALB/c mouse spleen at 100 mg/kg, po once daily after 8 days; assay type: functional, organism-based; parameters: dose 100 mg/kg
Cowpox virus [6] = assay: Reduction of Cowpox virus BR replication in BALB/c mouse liver at 50 mg/kg after 24 hrs of viral infection, po for 9 days; assay type: functional, organism-based; parameters: dose 50 mg/kg
Ectromelia virus [7] = assay: Reduction of Ectromelia virus replication in BALB/c mouse spleen at 100 mg/kg, po once daily after 6 days; assay type: functional, organism-based; parameters: dose 100 mg/kg
Mus musculus [8] = assay: Effect on mortality of BALB/c mouse inoculated with Vaccinia virus WR at 100 mg/kg after 4 hrs of viral infection, po once daily for 7 days relative to control; assay type: functional
Ectromelia virus [9] = assay: Reduction of Ectromelia virus replication in BALB/c mouse liver at 100 mg/kg, po once daily after 6 days; assay type: functional, organism-based; parameters: dose 100 mg/kg
Ectromelia virus [10] = assay: Reduction of Ectromelia virus replication in BALB/c mouse nasal wash at 100 mg/kg, po once daily after 8 days; assay type: functional, organism-based; parameters: dose 100 mg/kg
Ectromelia virus [11] = assay: Reduction of Ectromelia virus replication in BALB/c mouse trachea at 100 mg/kg, po once daily after 8 days; assay type: functional, organism-based; parameters: dose 100 mg/kg
Mus musculus [12] = assay: Effect on mortality of BALB/c mouse inoculated with Cowpox virus at 100 mg/kg after 24 hrs of viral infection, po once daily for 14 days relative to control; assay type: functional
Mus musculus [13] = assay: Effect on mortality of A/NCr mouse inoculated with 4100 PFU ectromelia virus at 100 mg/kg after 24 hrs of viral infection, po twice daily for 14 days; assay type: functional
Mus musculus [14] = assay: Effect on mortality of BALB/c mouse inoculated with Vaccinia virus WR at 100 mg/kg after 24 hrs of viral infection, po once daily for 10 days relative to control; assay type: functional
Ectromelia virus [15] = assay: Reduction of Ectromelia virus replication in BALB/c mouse lung at 100 mg/kg, po once daily after 6 days; assay type: functional, organism-based; parameters: dose 100 mg/kg
Ectromelia virus [16] = assay: Reduction of Ectromelia virus replication in BALB/c mouse trachea at 100 mg/kg, po once daily after 14 days; assay type: functional, organism-based; parameters: dose 100 mg/kg
Mus musculus [17] = assay: Effect on mortality of BALB/c mouse inoculated with Cowpox virus at 10 mg/kg after 48 hrs of viral infection, po once daily for 14 days relative to control; assay type: functional
[18] = Selectivity index, ratio of CC50 for HFF cells to EC50 for Vaccinia virus Copenhagen infected HFF cells; assay type: functional
Ectromelia virus [19] = assay: Reduction of Ectromelia virus replication in BALB/c mouse liver at 100 mg/kg, po once daily after 4 days; assay type: functional, organism-based; parameters: dose 100 mg/kg
[20] = Selectivity index, ratio of CC50 for HFF cells to EC50 for Vaccinia virus WR infected HFF cells; assay type: functional
Vaccinia virus = assay: Reduction of Vaccinia virus WR replication in BALB/c mouse lung at 50 mg/kg after 24 hrs of viral infection, po for 9 days; assay type: functional, organism-based; parameters: dose 50 mg/kg; settings: Orthopoxvirus vaccinia
Mus musculus [21] = assay: Effect on mortality of BALB/c mouse inoculated with Vaccinia virus WR at 100 mg/kg after 4 hrs of viral infection, po once daily for 5 days relative to control; assay type: functional
Ectromelia virus [22] = assay: Reduction of Ectromelia virus replication in BALB/c mouse esophagus at 100 mg/kg, po once daily after 4 days; assay type: functional, organism-based; parameters: dose 100 mg/kg
Mus musculus [23] = assay: Effect on mortality of BALB/c mouse inoculated with Vaccinia virus WR at 100 mg/kg after 4 hrs of viral infection, po once daily for 10 days relative to control; assay type: functional
Mus musculus [24] = assay: Effect on mortality of A/NCr mouse inoculated with 4.1 PFU ectromelia virus at 100 mg/kg after 4 hrs of viral infection, po twice daily for 14 days; assay type: functional
Ectromelia virus [25] = assay: Reduction of Ectromelia virus replication in BALB/c mouse nasal wash at 100 mg/kg, po once daily after 6 days; assay type: functional, organism-based; parameters: dose 100 mg/kg
Ectromelia virus [26] = assay: Reduction of Ectromelia virus replication in BALB/c mouse esophagus at 100 mg/kg, po once daily after 6 days; assay type: functional, organism-based; parameters: dose 100 mg/kg
Mus musculus [27] = assay: Effect on mortality of A/NCr mouse inoculated with ectromelia virus at 100 mg/kg after 72 hrs of viral infection, po once daily for 10 days relative control; assay type: functional
Mus musculus [28] = assay: Effect on mortality of BALB/c mouse inoculated with Cowpox virus at 100 mg/kg after 48 hrs of viral infection, po once daily for 14 days relative to control; assay type: functional
Mus musculus [29] = assay: Effect on mortality of BALB/c mouse inoculated with Cowpox virus at 30 mg/kg after 4 hrs of viral infection, po once daily for 14 days relative to control; assay type: functional
Cowpox virus [30] = assay: Reduction of Cowpox virus BR replication in BALB/c mouse kidney at 50 mg/kg after 24 hrs of viral infection, po for 9 days; assay type: functional, organism-based; parameters: dose 50 mg/kg
Mus musculus [31] = assay: Effect on mortality of BALB/c mouse inoculated with Cowpox virus at 30 mg/kg after 48 hrs of viral infection, po once daily for 14 days relative to control; assay type: functional

O=C(NN1C(=O)[C@@H]2[C@@H]3C=C[C@@H]([C@H]4C[C@@H]34)[C@@H]2C1=O)c1ccc(C(F)(F)F)cc1 [TECOVIRIMAT]
Activity (Mus musculus [1]): Active
Activity (Ectromelia virus [2]): Active
Activity (Mus musculus [3]): 27%
Activity (Mus musculus [4]): 11%
Activity (Ectromelia virus [5]): Active
Activity (Cowpox virus [6]): Active
Activity (Ectromelia virus [7]): Active
Activity (Mus musculus [8]): 20%
Activity (Ectromelia virus [9]): Active
Activity (Ectromelia virus [10]): inactive
Activity (Ectromelia virus [11]): Active
Activity (Mus musculus [12]): 27%
Activity (Mus musculus [13]): 0%
Activity (Mus musculus [14]): 0%
Activity (Ectromelia virus [15]): Active
Activity (Ectromelia virus [16]): Active
Activity (Mus musculus [17]): 13%
Ratio CC50/EC50 [18]: >2000
Activity (Ectromelia virus [19]): Active
Ratio CC50/EC50 [20]: >1000
Activity (Vaccinia virus): Active
Activity (Mus musculus [21]): 13%
Activity (Ectromelia virus [22]): Active
Activity (Mus musculus [23]): 33%
Activity (Mus musculus [24]): 0%
Activity (Ectromelia virus [25]): inactive
Activity (Ectromelia virus [26]): Active
Activity (Mus musculus [27]): 0%
Activity (Mus musculus [28]): 7%
Activity (Mus musculus [29]): 50%
Activity (Cowpox virus [30]): Active
Activity (Mus musculus [31]): 20%
